According to BindingDB's records for doi:10.7270/Q2Q52N1X (Vanderbilt Screening Center for GPCRs, Ion Channels and …, 2009):

molecular target: T1, Solute carrier family 12 member 5 (Homo sapiens, UniProt Q9H2X9); assay: concentration-response of KCC2 transport modulators – cell-based, HEK293 KCC2, FluoZin-2 fluorescence, dose response (AID 1736); conditions: not given
T1 sequence (Q9H2X9 whole entry): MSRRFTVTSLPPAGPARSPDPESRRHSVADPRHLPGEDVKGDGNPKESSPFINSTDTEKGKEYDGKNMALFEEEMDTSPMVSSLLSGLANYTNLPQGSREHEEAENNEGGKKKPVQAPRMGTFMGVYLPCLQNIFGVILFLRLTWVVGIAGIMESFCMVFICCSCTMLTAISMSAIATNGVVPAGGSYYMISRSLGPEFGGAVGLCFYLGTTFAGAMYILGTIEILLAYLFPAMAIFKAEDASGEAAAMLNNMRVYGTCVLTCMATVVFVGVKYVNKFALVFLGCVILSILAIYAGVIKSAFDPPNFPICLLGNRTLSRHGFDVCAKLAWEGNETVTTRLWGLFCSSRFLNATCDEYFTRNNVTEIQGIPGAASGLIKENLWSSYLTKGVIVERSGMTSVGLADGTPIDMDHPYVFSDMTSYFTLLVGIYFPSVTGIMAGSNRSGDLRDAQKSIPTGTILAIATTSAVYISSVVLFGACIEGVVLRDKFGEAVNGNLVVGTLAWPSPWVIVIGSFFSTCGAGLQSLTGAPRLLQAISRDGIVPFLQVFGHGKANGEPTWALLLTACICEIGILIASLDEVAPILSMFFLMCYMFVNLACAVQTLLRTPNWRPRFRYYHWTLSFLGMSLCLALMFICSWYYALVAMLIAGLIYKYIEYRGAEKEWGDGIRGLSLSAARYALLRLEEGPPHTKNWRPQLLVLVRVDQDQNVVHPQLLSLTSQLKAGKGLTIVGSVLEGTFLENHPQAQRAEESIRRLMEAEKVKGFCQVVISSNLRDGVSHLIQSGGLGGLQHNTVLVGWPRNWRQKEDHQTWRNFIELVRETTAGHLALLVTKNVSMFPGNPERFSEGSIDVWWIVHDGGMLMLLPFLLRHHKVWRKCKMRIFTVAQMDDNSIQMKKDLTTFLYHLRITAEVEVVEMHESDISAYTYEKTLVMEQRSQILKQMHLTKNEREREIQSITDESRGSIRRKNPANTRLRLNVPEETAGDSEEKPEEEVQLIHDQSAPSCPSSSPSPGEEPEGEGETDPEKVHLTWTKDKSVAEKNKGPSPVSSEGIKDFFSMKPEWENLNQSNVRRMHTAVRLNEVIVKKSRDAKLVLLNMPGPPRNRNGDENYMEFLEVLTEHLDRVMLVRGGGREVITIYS

SMILES | EC50 [µM]
O=C(Cn1c(-c2ccc(Cl)cc2)noc1=O)N1CCN(c2ccccc2F)CC1 [3-(4-Chloro-phenyl)-4-{2-[4-(2-fluoro-phenyl)-piperazin-1-yl]-2-oxo-ethyl}-4H-[1,2,4]oxadiazol-5-one] | 6.07
S=C(NCc1cccnc1)Nc1ccc(Oc2ccccc2)cc1 [1-(4-phenoxyphenyl)-3-(3-pyridinylmethyl)thiourea] | 5.3
O=C1OC(c2ccc(O)cc2)(c2ccc(O)cc2)c2ccccc21 | 3.29
Sc1nnc(C2(c3ccccc3)CCCC2)o1 [5-(1-phenylcyclopentyl)-3H-1,3,4-oxadiazole-2-thione] | 1.54
COc1cccc(CNC(=O)CSc2ccc(-c3cccs3)nn2)c1 [MLS000621194] | 34.2
Cc1cc([N+](=O)[O-])ccc1NCc1ccccc1 [2-methyl-4-nitro-N-(phenylmethyl)aniline] | 31.3
CC(C)(C)NC(=O)C(c1cccs1)N(CC1CCCO1)C(=O)c1ccc(-c2ccccc2)[nH]1 (configuration not stated) [N-[2-(tert-butylamino)-2-oxo-1-thiophen-2-ylethyl]-N-(2-oxolanylmethyl)-5-phenyl-1H-pyrrole-2-carboxamide] | 1.93
O=C(C1CCN(S(=O)(=O)c2cccc3nsnc23)CC1)N1CCc2ccccc2C1 [2-{[1-(2,1,3-benzothiadiazol-4-ylsulfonyl)piperidin-4-yl]carbonyl}-1,2,3,4-tetrahydroisoquinoline] | 34.1
CC(C)(CN=C(S)NCCc1ccccc1)CN=C(S)NCCc1ccccc1 [1-[2,2-dimethyl-3-(2-phenylethylcarbamothioylamino)propyl]-3-(2-phenylethyl)thiourea] | 0.929
COc1cc(C(=S)N2CCOCC2)cc(OC)c1OC(=O)Cc1ccccc1 [(2,6-dimethoxy-4-morpholin-4-ylcarbothioyl-phenyl) 2-phenylethanoate] | 1.16
Cn1c(C(=O)NCCN2CCN(c3ccccc3F)CC2)cc2c(=O)n(C)c3ccccc3c21 [MLS000118132] | 2.68
COc1ccc(S(=O)(=O)N(C)CC(=O)N2CCN(Cc3ccccc3)CC2)cc1C [4-methoxy-N,3-dimethyl-N-[2-oxidanylidene-2-[4-(phenylmethyl)piperazin-1-yl]ethyl]benzenesulfonamide] | 3.52
O=C(Cn1cnc2c(nnn2-c2ccccc2)c1=O)NCCc1ccccc1 [2-(7-keto-3-phenyl-triazolo[4,5-d]pyrimidin-6-yl)-N-phenethyl-acetamide] | 1.17
CC1CCCCN1C(=O)CSc1ccc(-c2ccc(F)cc2)nn1 (configuration not stated) [2-[6-(4-Fluoro-phenyl)-pyridazin-3-ylsulfanyl]-1-(2-methyl-piperidin-1-yl)-ethanone] | 8190
CC1Cc2ccccc2N1C(=O)CN(C)S(=O)(=O)c1cccc2cccnc12 (configuration not stated) [MLS000523063] | 19.5
COc1ccc(-n2cnnc2SCC(=O)Nc2cc(S(=O)(=O)N3CCCCC3)ccc2C)cc1 [2-[[4-(4-methoxyphenyl)-1,2,4-triazol-3-yl]sulfanyl]-N-(2-methyl-5-piperidin-1-ylsulfonyl-phenyl)ethanamide] | 4.63
CCc1ccc(Nc2nnc(SCC(=O)Nc3sccc3C(N)=O)s2)cc1 [2-[2-[[5-[(4-ethylphenyl)amino]-1,3,4-thiadiazol-2-yl]sulfanyl]ethanoylamino]thiophene-3-carboxamide] | 6.01

SMILES | EC50 [µM]
O=C(O)CCc1cc(I)c(Oc2ccc(O)c(I)c2)c(I)c1 [3-[4-(4-hydroxy-3-iodophenoxy)-3,5-diiodophenyl]propanoic acid] | 11.1
S=C(NN=Cc1cccc2ccccc12)Nc1cccc(Cl)c1 [1-(3-chlorophenyl)-3-(1-naphthalenylmethylideneamino)thiourea] | 12.7
O=S(=O)(NCCc1ccccc1F)c1cccc(S(=O)(=O)N2CCOCC2)c1 [MLS000076090] | 4040
O=C(C1CCN(c2nnc(-n3cccc3)s2)CC1)N1CCc2ccccc2C1 [3,4-dihydro-1H-isoquinolin-2-yl-[1-(5-pyrrol-1-yl-1,3,4-thiadiazol-2-yl)-4-piperidyl]methanone] | 10.6
Cc1ccc(/C=C2/Sc3ccccc3N(CC(=O)NCCCOC(C)C)C2=O)cc1 [2-[(2E)-2-[(4-methylphenyl)methylidene]-3-oxidanylidene-1,4-benzothiazin-4-yl]-N-(3-propan-2-yloxypropyl)ethanamide] | 276
CC1Cc2ccccc2N1C(=O)c1ccc(N2CCCCC2)c([N+](=O)[O-])c1 (configuration not stated) [(2-methyl-2,3-dihydroindol-1-yl)-(3-nitro-4-piperidin-1-yl-phenyl)methanone] | 1.59
O=c1c(-c2cnn(-c3ccccc3)c2)coc2cc(O)ccc12 [7-hydroxy-3-(1-phenyl-1H-pyrazol-4-yl)-4H-chromen-4-one] | 20.1
O=C(NCCc1cn2ccccc2n1)c1cc(COc2c(F)cccc2F)on1 [5-[(2,6-difluorophenoxy)methyl]-N-(2-imidazo[1,2-a]pyridin-2-ylethyl)-1,2-oxazole-3-carboxamide] | 7.6
CC1CCN(C(=O)c2ccc(SCc3ccccc3F)c([N+](=O)[O-])c2)CC1 [1-{4-[(2-fluorobenzyl)thio]-3-nitrobenzoyl}-4-methylpiperidine] | 1.94
N#CC(C(=O)COc1ccccc1)c1nc2ccccc2s1 (configuration not stated) [(2Z)-2-(3H-1,3-benzothiazol-2-ylidene)-3-keto-4-phenoxy-butyronitrile] | 6.56
O=C(NCC1CCCN(C(=O)c2cccnc2)C1)c1ccc(-c2ccccc2)cc1 (configuration not stated) [4-phenyl-N-[(1-pyridin-3-ylcarbonylpiperidin-3-yl)methyl]benzamide] | 0.657
COc1ccc(N(CC(=O)Nc2cccc(C)c2C)S(=O)(=O)c2c(C)n[nH]c2C)cc1 [N-(2,3-dimethylphenyl)-2-[(3,5-dimethyl-1H-pyrazol-4-yl)sulfonyl-(4-methoxyphenyl)amino]ethanamide] | 15.7
O=C(Nc1ccc2oc(-c3ccccc3)nc2c1)c1ccncc1 [MLS000109492] | 3.24
COc1cc(OC)c(C2=NOC(C(=O)N3CCc4ccccc4C3)C2)cc1Cl (configuration not stated) [2-{[3-(5-chloro-2,4-dimethoxyphenyl)-4,5-dihydro-5-isoxazolyl]carbonyl}-1,2,3,4-tetrahydroisoquinoline] | 8.15
Cc1ccc(/C=C2\SC(=S)N(c3c(C)n(C)n(-c4ccccc4)c3=O)C2=O)cc1 [3-(1,5-dimethyl-3-oxo-2-phenyl-2,3-dihydro-1H-pyrazol-4-yl)-5-(4-methylbenzylidene)-2-thioxo-1,3-thiazolidin-4-one] | 1.18
Cc1[nH]c2ccccc2c1SCC(=O)N1CCN(c2ccccc2)CC1 [2-[(2-methyl-1H-indol-3-yl)thio]-1-(4-phenyl-1-piperazinyl)ethanone] | 86.4

same assay, conditions: inactive by the depositor's call

SMILES | EC50 [µM]
COc1ccc(N(CC(=O)Nc2ccc(C)c(C)c2)S(=O)(=O)c2c(C)n[nH]c2C)cc1 [SMR000027403] | 35.1
O=C(NCCSCc1ccccc1)c1cc(S(=O)(=O)N2CCOCC2)ccc1F [2-fluoranyl-5-morpholin-4-ylsulfonyl-N-[2-(phenylmethylsulfanyl)ethyl]benzamide] | 24.7
O=[N+]([O-])c1ccc(NC2CCN(Cc3ccccc3)CC2)c([N+](=O)[O-])c1 [(1-benzyl-4-piperidyl)-(2,4-dinitrophenyl)amine] | 5.49
O=C(Cn1c(-c2ccccc2)noc1=O)N1CCC(Cc2ccccc2)CC1 [4-[2-(4-benzylpiperidin-1-yl)-2-oxoethyl]-3-phenyl-1,2,4-oxadiazol-5-one] | 39.6
